US10316057B2, “Tandem facial amphiphiles” (WISCONSIN ALUMNI RESEARCH FOUNDATION, priority 2011, dated 2019)
Values joined by “and” are separate entries in the source; they are usually repeats but may differ in a detail not shown here. Equal entries are not always repeated. Structures can show the parent of a compound that is named as a salt.

Columns and labels:
[1] = test system: leucine transporter (LeuT WT); assay: LeuT functionality assay ([3H]-Leu binding by scintillation proximity assay); parameters: species or system Aquifex aeolicus; conditions: room temperature
From the text: The wild type of bacterial leucine transporter (LeuT WT) was examined because the functional state of this membrane protein is readily assessed by using a scintillation proximity assay (SPA) (Quick et al., Proc. Natl. Acad. Sci. USA 2007, 104, 3603-3608) to monitor binding of radiolabelled leucine. LeuT was initially extracted with DDM and then diluted with amphiphile-containing solutions to generate final TFA concentrations of 0.04 wt % or 0.2 wt % (residual DDM=0.005 wt %). Control samples had 0.05 wt % or 0.2 wt % DDM (overall, the final concentrations were CMC+0.04 wt % or CMC+0.2 wt %).
The wild type of the leucine transporter (LeuT WT) from Aquifex aeolicus was expressed in Escherichia coli essentially as described by Deckert et al. (Nature 392, 353-358 (1998)). The pET16b-LeuT WT-8His plasmid was kindly provided by Dr. Eric Gouaux, Vollum Institute, Portland Oreg. LeuT WT was extracted from isolated bacterial membranes solubilized with 1% DDM, bound to Ni^2+-affinity Chelating Sepharose Fast Flow resin (GE Healthcare, USA), and eluted in buffer consisted of 20 mM Tris-HCl (pH 8.0), 1 mM NaCl, 199 mM KCl, 0.05% DDM and 300 mM imidazole. […] After incubation at room temperature, at the indicated time points, samples were centrifuged and the protein concentration was determined by absorbance measurements at 280 nm. Concomitantly, [^3H]-Leu binding was determined using scintillation proximity assay (SPA) (Quick and Javitch, Proc. Natl. Acad. Sci. USA 104, 3603-3608 (2007)), with the reaction mixture consisted of 5 μL from the respective samples, 33.3 nM [^3H]-Leu (PerkinElmer, USA) and copper chelate (His-Tag) YSi beads (GE Healthcare). […] Normalized results are expressed as mean±SEM (n=2), as illustrated in FIG. 11 (long-term solubility of LeuT WT incubated in the presence of TFA-1, TFA-3, and DDM at (a) CMC+0.04 wt % or (b) CMC+0.2 wt % at room temperature).

[2] = Critical micelle concentration by solubilization of a hydrophobic fluorescent dye; type: physicochemical; conditions: mean ± SD, n = 3
From the text: The “Critical Micelle Concentration” (CMC) refers to the concentration of a detergent (e.g., an amphiphile as described herein) in an aqueous solution at which the detergent molecules self-assemble into micelles. Below the CMC, detergents are mostly monomeric; above the CMC, micelle concentration increases linearly with detergent concentration. The CMC is dependent upon many factors and is detergent-specific. The CMC of a detergent can be determined experimentally by measuring the solubilization of a water-insoluble dye or fluorophore while varying the concentration of detergent. A CMC may also be determined by measuring the diminution of the surface tension of an aqueous solution as a function of detergent concentration (CMCs determined by either method correlate with each other). The CMC is determined by extrapolating the plot of solubilization vs. concentration (or surface tension vs. concentration) in the two linear regions above and below the CMC. Where the two lines intersect is the CMC. The CMC can also be determined by the method of Nugebauer, J. M. (1990), Methods in Enzymology, 182:239-253.
(§1) TFA-0 forms a hydrogel at concentrations >0.4 wt %, and this compound was not studied further. The other three TFAs are soluble to 5-10 wt % in aqueous media. Critical micelle concentrations (CMC) were determined by monitoring solubilization of a hydrophobic fluorescent dye, […] (Chattopadhyay et al., Anal. Biochem. 1984, 139, 408-412), and the hydrodynamic radii (Rh) of the micelles were determined via dynamic light scattering (DLS). Table 1 compares the data for TFAs with those for DDM, a conventional detergent that is very widely used for MP applications; DDM and the TFAs share maltose as their hydrophilic moieties. CMC values of the three TFAs are smaller than that of DDM, whether CMC is measured in units of mM or wt %.
Analysis of these TFAs for their CMC values provided the data in Table 3.

[3] = Hydrodynamic radii of micelles by dynamic light scattering (DLS); type: physicochemical; conditions: 0.5 wt % amphiphile in water, 25° C.; mean ± SD, n = 3
Method: as §1
Each TFA and DDM was dissolved in distilled, deionized (DI) water to obtain 1 mL of a solution containing 0.5 wt % amphiphile. Each solution was filtered through a 0.02 μm filter for DLS measurements. A 100-mW, 532-nm laser (Compass 315M-100, Coherent, Santa Clara, Calif.) illuminated a temperature-controlled glass cell at 25° C. that was filled with a refractive-index matching fluid (decahydronaphthalene, Fisher Scientific, Pittsburgh, Pa.). The scattered light was collected at an angle of 90° for about 30 minutes. Rh values were determined using the integrated dynamics software that analyzes the time scale of the scattered light intensity fluctuations by an autocorrelation function. The autocorrelation functions (ACFs) were obtained using a BI-9000AT digital autocorrelator (Brookhaven Instruments, Holtsville, N.Y.). Measurements were repeated three times.

| SMILES | maintaining LeuT WT function over 12 days ([1]; lower amphiphile concentration, CMC+0.04 wt %) | CMC [2] [µM] | CMC (wt %) [2] | Rh (nm), hydrodynamic radius of micelles measured by dynamic light scattering [3] [nm] | maintaining LeuT WT function over 12 days ([1]; higher amphiphile concentration, CMC+0.2 wt %) |
| --- | --- | --- | --- | --- | --- |
| CCCCCCCCCCCCO[C@@H]1O[C@H](CO)[C@@H](O[C@H]2O[C@H](CO)[C@@H](O)[C@H](O)[C@H]2O)[C@H](O)[C@H]1O [DDM, dodecyl-β-D-maltoside, reference compound] | slightly better than the TFAs | 170 | 0.009 wt % and 0.0087 wt % | 3.4 ± 0.03 |  |
| C[C@H](CCC(=O)N(C)CCCN(C)C(=O)CC[C@@H](C)[C@H]1CC[C@H]2[C@@H]3CC[C@@H]4C[C@H](O[C@@H]5O[C@H](CO)[C@@H](O[C@H]6O[C@H](CO)[C@@H](O)[C@H](O)[C@H]6O)[C@H](O)[C@H]5O)CC[C@]4(C)[C@H]3C[C@H](O[C@@H]3O[C@H](CO)[C@@H](O[C@H]4O[C@H](CO)[C@@H](O)[C@H](O)[C@H]4O)[C@H](O)[C@H]3O)[C@]12C)[C@H]1CC[C@H]2[C@@H]3CC[C@@H]4C[C@H](O[C@@H]5O[C@H](CO)[C@@H](O[C@H]6O[C@H](CO)[C@@H](O)[C@H](O)[C@H]6O)[C@H](O)[C@H]5O)CC[C@]4(C)[C@H]3C[C@H](O[C@@H]3O[C@H](CO)[C@@H](O[C@H]4O[C@H](CO)[C@@H](O)[C@H](O)[C@H]4O)[C@H](O)[C@H]3O)[C@]12C [TFA-1] |  | 13 ± 1.4 | 0.0028 ± 0.0003 wt % | 1.9 ± 0.08 | matched DDM at the lower concentration |
